System: 922993-354-T-J3-PDC complex spheroids, viability
Assay: Anticancer human tumor 922993-354-T-J3-PDC patient-derived endometrial carcinoma cell line growth inhibition [GQUAD]
Settings: for IC50: curve of first compound; for viability, T/C: stronger effect = lower value
Source text: DNA G-quadruplex Stabilizer Agents in Combinations in Complex Spheroids
A high-throughput screen of multi-cell type tumor spheroids was designed to identify active combinations of DNA G-quadruplex stabilizer agents and targeted small molecules. Complex spheroids include a stromal component modeled by human endothelial cells (HUVEC) and fibroblasts modeled by human mesenchymal stem cells (MSCs). The concentration ranges selected for each drug and investigational agent were based upon clinically achievable concentrations if the clinical Cmax of the agent was known.
Compounds. The drugs and investigational agents: pidnarulex (CX-5461; NSC782164), APTO-253 (NSC789042), BRACO-19 (NSC847499), peposertib (NSC802822), ceralasertib (NSC780249), elimusertib (NSC800525), camonsertib (NSC841442), AZD-1390 (NSC803789), olaparib (NSC753686), talazoparib (NSC767125), ART-558 (NSC835418), sotorasib (NSC818433), MRTX-1133 (NSC836407), SN-38 (NSC673596), topotecan (NSC609699), etoposide (NSC141540), doxorubicin (NSC123127), gemcitabine (NSC613327), 5-fluorouracil (NSC19893), paclitaxel (NSC125973), vemurafenib (NSC761431), panobinostat (NSC761190), R-306465 (JNJ-16241199; NSC773264), adavosertib (NSC754352), TP-3654 (NSC805149), carboplatin (NSC241240), KSQ-4279 (NSC840948), and staurosporine (NSC755774) were obtained from the National Cancer Institute (NCI) Developmental Therapeutics Program Chemical Repository (34). The FDA-approved anticancer drug set is available from the NCI Developmental Therapeutics Program. […] The stock solutions were prepared in dimethyl sulfoxide (DMSO, Sigma-Aldrich, St. Louis, MO, cat. D2650) at 800-fold the tested concentration and stored at -70 degrees C prior to their use. All drugs and investigational agents were tested over a range starting from a high concentration at or near the clinical Cmax and decreasing in half-log increments. If the clinical Cmax for an agent had not been determined, the highest concentration tested was 10 microM.
2.3 Cell Culture. All cells were maintained in an incubator at 37 degrees C and 5% CO2 with 95% humidity. The PDC lines were cultured according to standard operating procedures established by the NCI PDMR. All PDCs were thawed and cultured in Matrigel-coated flasks prepared with a working solution of 1X Ham's F-12 nutrient mix, without supplementation (Invitrogen, cat. 11765054), 100 U/mL penicillin-streptomycin (Invitrogen, cat. 15140122), and 2.5% Matrigel (Corning Inc., cat. 354248) for the first three passages. The 857933-349-R-J2-PDC line was cultured in 6C/Colon 1B media, which includes advanced DMEM/F-12 (Thermo Fisher Scientific, cat. 12634028), 10 mM HEPES (Thermo Fisher Scientific, cat. 15630080), 1X GlutaMAX supplement (Thermo Fisher Scientific, cat. 35050061), 0.1 mg/mL primocin (InvivoGen, cat. ant-pm-2), 10% defined fetal bovine serum, heat inactivated (HyClone Laboratories Inc., cat. SH30070.03HI), 50% L-WRN conditioned media (ATCC, cat. CRL-3276), 1.25 mM N-Acetyl-L-cysteine (Sigma-Aldrich, cat. A9165), 10 mM nicotinamide (Sigma-Aldrich, cat. N0636), 1X B-27 supplement (Thermo Fisher Scientific, cat. 17504044), 1X N-2 supplement (Thermo Fisher Scientific, cat. 17502048), 10 microM Y-27632 dihydrochloride (Tocris Bioscience, cat. 1254), and 50 ng/mL human EGF recombinant protein (Thermo Fisher Scientific, cat. PHG0311). The 485176-168-R4-J1-PDC line was cultured in Panc media, which includes all 6C/Colon 1B media components plus 100 ng/mL human FGF-10 (Thermo Fisher Scientific, cat. 100-26), 500 nM SB-431542 (Selleckchem, cat. S1067), and gastrin (Tocris, cat. 3006).
[…]

[1] = second compound 0.0316 µM, first compound 0.0316 µM
[2] = second compound 0.0316 µM, first compound 0.1 µM
[3] = second compound 0.0316 µM, first compound 0.316 µM
[4] = second compound 0.0316 µM, first compound 1 µM
[5] = second compound 0.0316 µM, first compound 3.16 µM
[6] = second compound 0.0316 µM, first compound 10 µM
[7] = second compound 0.1 µM, first compound 0.0316 µM
[8] = second compound 0.1 µM, first compound 0.1 µM
[9] = second compound 0.1 µM, first compound 0.316 µM
[10] = second compound 0.1 µM, first compound 1 µM
[11] = second compound 0.1 µM, first compound 3.16 µM
[12] = second compound 0.1 µM, first compound 10 µM
[13] = second compound 0.316 µM, first compound 0.0316 µM
[14] = second compound 0.316 µM, first compound 0.1 µM
[15] = second compound 0.316 µM, first compound 0.316 µM
[16] = second compound 0.316 µM, first compound 1 µM
[17] = second compound 0.316 µM, first compound 3.16 µM
[18] = second compound 0.316 µM, first compound 10 µM
[19] = second compound 1 µM, first compound 0.0316 µM
[20] = second compound 1 µM, first compound 0.1 µM
[21] = second compound 1 µM, first compound 0.316 µM
[22] = second compound 1 µM, first compound 1 µM
[23] = second compound 1 µM, first compound 3.16 µM
[24] = second compound 1 µM, first compound 10 µM
[25] = second compound 3.16 µM, first compound 0.0316 µM
[26] = second compound 3.16 µM, first compound 0.1 µM
[27] = second compound 3.16 µM, first compound 0.316 µM
[28] = second compound 3.16 µM, first compound 1 µM
[29] = second compound 3.16 µM, first compound 3.16 µM
[30] = second compound 3.16 µM, first compound 10 µM
[31] = second compound 10 µM, first compound 0.0316 µM
[32] = second compound 10 µM, first compound 0.1 µM
[33] = second compound 10 µM, first compound 0.316 µM
[34] = second compound 10 µM, first compound 1 µM
[35] = second compound 10 µM, first compound 3.16 µM
[36] = second compound 10 µM, first compound 10 µM
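Also: spheroids exposed to compounds for seven days.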
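For viability, T/C in this document: 100% = DMSO vehicle control viability.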

Cc1cccc(N(C)C(=O)C2C(O)CCN2c2nc(C)cc(C(F)(F)F)c2C#N)c1 (centres undefined) + Cc1[nH]c2ccc(F)cc2c1-c1nc2c3cccnc3c3ncccc3c2[nH]1
IC50 (second compound 0.0316 µM): > 10 µM
IC50 (second compound 0.1 µM): > 10 µM
IC50 (second compound 0.316 µM): > 10 µM
IC50 (second compound 1 µM): > 10 µM
IC50 (second compound 3.16 µM): > 10 µM
IC50 (second compound 10 µM): > 10 µM
viability, T/C [1]: 111%
viability, T/C [2]: 112%
viability, T/C [3]: 80.8%
viability, T/C [4]: 94%
viability, T/C [5]: 120%
viability, T/C [6]: 82.9%
viability, T/C [7]: 108%
viability, T/C [8]: 122%
viability, T/C [9]: 97.7%
viability, T/C [10]: 135%
viability, T/C [11]: 120%
viability, T/C [12]: 126%
viability, T/C [13]: 90.7%
viability, T/C [14]: 112%
viability, T/C [15]: 74.7%
viability, T/C [16]: 104%
viability, T/C [17]: 87.9%
viability, T/C [18]: 99.3%
viability, T/C [19]: 112%
viability, T/C [20]: 96.5%
viability, T/C [21]: 104%
viability, T/C [22]: 114%
viability, T/C [23]: 102%
viability, T/C [24]: 97.3%
viability, T/C [25]: 123%
viability, T/C [26]: 121%
viability, T/C [27]: 103%
viability, T/C [28]: 96.9%
viability, T/C [29]: 129%
viability, T/C [30]: 73.8%
viability, T/C [31]: 87%
viability, T/C [32]: 94.3%
viability, T/C [33]: 109%
viability, T/C [34]: 111%
viability, T/C [35]: 95.4%
viability, T/C [36]: 123%

O=c1[nH]cc(F)c(=O)[nH]1 + Cc1[nH]c2ccc(F)cc2c1-c1nc2c3cccnc3c3ncccc3c2[nH]1
IC50 (second compound 0.0316 µM): > 10 µM
IC50 (second compound 0.1 µM): > 10 µM
IC50 (second compound 0.316 µM): > 10 µM
IC50 (second compound 1 µM): > 10 µM
IC50 (second compound 3.16 µM): > 10 µM
IC50 (second compound 10 µM): > 10 µM
viability, T/C [1]: 85%
viability, T/C [2]: 77.8%
viability, T/C [3]: 113%
viability, T/C [4]: 105%
viability, T/C [5]: 80.4%
viability, T/C [6]: 55.3%
viability, T/C [7]: 117%
viability, T/C [8]: 87.6%
viability, T/C [9]: 102%
viability, T/C [10]: 99.6%
viability, T/C [11]: 69.2%
viability, T/C [12]: 66.4%
viability, T/C [13]: 119%
viability, T/C [14]: 83.7%
viability, T/C [15]: 103%
viability, T/C [16]: 94.3%
viability, T/C [17]: 95.5%
viability, T/C [18]: 64.8%
viability, T/C [19]: 87.2%
viability, T/C [20]: 104%
viability, T/C [21]: 95.8%
viability, T/C [22]: 71.6%
viability, T/C [23]: 82.1%
viability, T/C [24]: 53.9%
viability, T/C [25]: 90%
viability, T/C [26]: 84.6%
viability, T/C [27]: 98.8%
viability, T/C [28]: 96.8%
viability, T/C [29]: 76.2%
viability, T/C [30]: 59%
viability, T/C [31]: 104%
viability, T/C [32]: 109%
viability, T/C [33]: 93.6%
viability, T/C [34]: 92.6%
viability, T/C [35]: 103%
viability, T/C [36]: 61.6%

Source: PubChem BioAssay AID2060489 (Molecular Pharmacology Branch, DTP, NCI, 2025)
